BigSolDB 2.1

CC(C(=O)O)c1ccc2c(c1)CC(=O)c1ccccc1S2 (stereo not drawn)
solubility (mole fraction) (in 1,4-dioxane, 288.15 K): 0.0923
solubility (mole fraction) (in 1,4-dioxane, 293.15 K): 0.103
solubility (mole fraction) (in 1,4-dioxane, 298.15 K): 0.114
solubility (mole fraction) (in 1,4-dioxane, 303.15 K): 0.127
solubility (mole fraction) (in 1,4-dioxane, 308.15 K): 0.142
solubility (mole fraction) (in 1,4-dioxane, 313.15 K): 0.157
solubility (mole fraction) (in 1,4-dioxane, 318.15 K): 0.173
solubility (mole fraction) (in 1,4-dioxane, 323.15 K): 0.19
solubility (mole fraction) (in 2-ethoxyethanol, 278.15 K): 0.0373
solubility (mole fraction) (in 2-ethoxyethanol, 283.15 K): 0.0458
solubility (mole fraction) (in 2-ethoxyethanol, 288.15 K): 0.0518
solubility (mole fraction) (in 2-ethoxyethanol, 293.15 K): 0.0596
solubility (mole fraction) (in 2-ethoxyethanol, 298.15 K): 0.0677
solubility (mole fraction) (in 2-ethoxyethanol, 303.15 K): 0.0779
solubility (mole fraction) (in 2-ethoxyethanol, 308.15 K): 0.0911
solubility (mole fraction) (in 2-ethoxyethanol, 313.15 K): 0.106
solubility (mole fraction) (in 2-ethoxyethanol, 318.15 K): 0.12
solubility (mole fraction) (in 2-ethoxyethanol, 323.15 K): 0.136
solubility (mole fraction) (in 2-methoxyethanol, 278.15 K): 0.0278
solubility (mole fraction) (in 2-methoxyethanol, 283.15 K): 0.036
solubility (mole fraction) (in 2-methoxyethanol, 288.15 K): 0.0437
solubility (mole fraction) (in 2-methoxyethanol, 293.15 K): 0.0516
solubility (mole fraction) (in 2-methoxyethanol, 298.15 K): 0.0619
solubility (mole fraction) (in 2-methoxyethanol, 303.15 K): 0.074
solubility (mole fraction) (in 2-methoxyethanol, 308.15 K): 0.0878
solubility (mole fraction) (in 2-methoxyethanol, 313.15 K): 0.102
solubility (mole fraction) (in 2-methoxyethanol, 318.15 K): 0.119
solubility (mole fraction) (in 2-methoxyethanol, 323.15 K): 0.138
solubility (mole fraction) (in ethanol, 278.15 K): 0.00265
solubility (mole fraction) (in ethanol, 283.15 K): 0.00396
solubility (mole fraction) (in ethanol, 288.15 K): 0.00522
solubility (mole fraction) (in ethanol, 293.15 K): 0.0071
solubility (mole fraction) (in ethanol, 298.15 K): 0.00956
solubility (mole fraction) (in ethanol, 303.15 K): 0.012
solubility (mole fraction) (in ethanol, 308.15 K): 0.0166
solubility (mole fraction) (in ethanol, 313.15 K): 0.0222
solubility (mole fraction) (in ethanol, 318.15 K): 0.03
solubility (mole fraction) (in ethanol, 323.15 K): 0.0418
solubility (mole fraction) (in ethyl acetate, 278.15 K): 0.00812
solubility (mole fraction) (in ethyl acetate, 283.15 K): 0.00951
solubility (mole fraction) (in ethyl acetate, 288.15 K): 0.0112
solubility (mole fraction) (in ethyl acetate, 293.15 K): 0.0131
solubility (mole fraction) (in ethyl acetate, 298.15 K): 0.0154
solubility (mole fraction) (in ethyl acetate, 303.15 K): 0.0176
solubility (mole fraction) (in ethyl acetate, 308.15 K): 0.0216
solubility (mole fraction) (in ethyl acetate, 313.15 K): 0.0256
solubility (mole fraction) (in ethyl acetate, 318.15 K): 0.0304
solubility (mole fraction) (in ethyl acetate, 323.15 K): 0.0362
